Measured values as given in ChEMBL document CHEMBL1201862, “PubChem BioAssay data set” (2004).
Where a name gives a salt, the structure may show the parent alone. The source made the active and inactive calls.

Assays:
HEK293 [1] = experiment: cells; format: functional, cell-based; conditions: Homo sapiens
[2] = target: T1, Nuclear receptor subfamily 0 group B member 1 (Homo sapiens, UniProt P51843); experiment: Luminescence-based cell-based high throughput dose response assay for inhibitors of the orphan nuclear receptor subfamily 0, group B, member 1 (DAX1; NR0B1). [Related pubchem assays (depositor defined):AID504766, AID504790]; format: functional
T1 sequence (P51843 whole entry): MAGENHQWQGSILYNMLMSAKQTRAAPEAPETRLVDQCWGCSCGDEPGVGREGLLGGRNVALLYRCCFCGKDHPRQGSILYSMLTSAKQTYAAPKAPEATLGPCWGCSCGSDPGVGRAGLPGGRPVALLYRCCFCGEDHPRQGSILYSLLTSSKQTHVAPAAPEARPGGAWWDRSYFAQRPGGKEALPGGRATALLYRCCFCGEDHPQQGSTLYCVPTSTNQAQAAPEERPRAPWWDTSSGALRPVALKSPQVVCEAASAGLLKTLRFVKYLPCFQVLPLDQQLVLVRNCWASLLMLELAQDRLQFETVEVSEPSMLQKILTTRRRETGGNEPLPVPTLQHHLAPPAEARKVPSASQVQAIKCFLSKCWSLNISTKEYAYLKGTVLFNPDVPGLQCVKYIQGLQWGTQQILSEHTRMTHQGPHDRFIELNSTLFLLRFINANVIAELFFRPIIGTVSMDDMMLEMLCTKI

[3] = target: T2, Apoptotic protease-activating factor 1 (Homo sapiens, UniProt O14727); format: functional
T2 sequence (O14727 whole entry): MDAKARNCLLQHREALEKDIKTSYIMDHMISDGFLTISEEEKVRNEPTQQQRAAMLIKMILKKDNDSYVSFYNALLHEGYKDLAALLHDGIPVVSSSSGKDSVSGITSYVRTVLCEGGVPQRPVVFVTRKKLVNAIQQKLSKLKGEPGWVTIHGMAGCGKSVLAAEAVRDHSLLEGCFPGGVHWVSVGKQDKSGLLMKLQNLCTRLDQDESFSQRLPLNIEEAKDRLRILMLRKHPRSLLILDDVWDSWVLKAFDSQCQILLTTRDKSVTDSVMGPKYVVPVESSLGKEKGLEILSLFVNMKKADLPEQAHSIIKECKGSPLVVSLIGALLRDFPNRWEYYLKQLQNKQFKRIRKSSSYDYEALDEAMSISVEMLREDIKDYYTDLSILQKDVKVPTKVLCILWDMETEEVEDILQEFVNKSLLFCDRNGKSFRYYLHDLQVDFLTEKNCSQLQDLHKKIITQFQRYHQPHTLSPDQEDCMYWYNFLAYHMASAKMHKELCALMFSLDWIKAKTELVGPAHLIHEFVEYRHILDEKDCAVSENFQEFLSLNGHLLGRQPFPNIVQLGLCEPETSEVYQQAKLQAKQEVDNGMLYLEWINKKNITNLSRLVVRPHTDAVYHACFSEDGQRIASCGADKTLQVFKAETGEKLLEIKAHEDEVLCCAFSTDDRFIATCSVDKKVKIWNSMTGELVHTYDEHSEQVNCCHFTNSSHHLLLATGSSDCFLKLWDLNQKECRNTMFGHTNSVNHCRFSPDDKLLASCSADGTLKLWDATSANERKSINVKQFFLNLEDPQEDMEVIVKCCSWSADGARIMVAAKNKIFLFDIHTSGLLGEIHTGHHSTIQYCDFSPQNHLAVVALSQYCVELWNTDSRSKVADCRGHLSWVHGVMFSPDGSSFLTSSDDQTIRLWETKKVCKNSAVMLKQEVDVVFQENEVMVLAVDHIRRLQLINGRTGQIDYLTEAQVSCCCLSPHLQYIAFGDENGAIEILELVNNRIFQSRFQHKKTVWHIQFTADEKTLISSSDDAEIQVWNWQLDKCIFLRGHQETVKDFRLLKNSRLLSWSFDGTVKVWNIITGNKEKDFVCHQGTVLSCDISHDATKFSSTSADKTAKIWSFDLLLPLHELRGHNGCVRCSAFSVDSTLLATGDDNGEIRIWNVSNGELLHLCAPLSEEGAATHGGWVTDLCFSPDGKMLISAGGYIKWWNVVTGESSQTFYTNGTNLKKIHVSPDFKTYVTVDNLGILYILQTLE

Vero [4] = experiment: cells; format: functional; conditions: Chlorocebus sabaeus
[5] = target: Luciferin 4-monooxygenase (Photinus pyralis, UniProt P08659); experiment: inhibition of purified Photinus pyralis luciferase – biochemical, luminescence, dose response (AID 1891)
Sequence of Luciferin 4-monooxygenase (P08659 whole entry): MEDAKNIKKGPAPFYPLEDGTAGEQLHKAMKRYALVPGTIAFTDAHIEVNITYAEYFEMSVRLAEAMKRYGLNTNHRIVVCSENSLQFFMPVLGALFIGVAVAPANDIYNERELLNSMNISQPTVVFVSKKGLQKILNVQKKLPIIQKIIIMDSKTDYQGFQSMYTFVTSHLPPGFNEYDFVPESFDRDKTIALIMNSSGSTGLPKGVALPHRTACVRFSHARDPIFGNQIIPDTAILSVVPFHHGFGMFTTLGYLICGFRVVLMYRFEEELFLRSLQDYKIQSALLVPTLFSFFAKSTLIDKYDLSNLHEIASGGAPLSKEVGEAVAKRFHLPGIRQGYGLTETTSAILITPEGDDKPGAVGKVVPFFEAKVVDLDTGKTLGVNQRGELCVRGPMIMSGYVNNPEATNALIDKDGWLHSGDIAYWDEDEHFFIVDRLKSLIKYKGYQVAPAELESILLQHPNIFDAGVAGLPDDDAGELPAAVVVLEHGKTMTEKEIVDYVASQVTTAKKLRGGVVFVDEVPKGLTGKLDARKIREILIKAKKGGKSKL

[6] = Luminescence Cell-Based Dose Confirmation HTS to Identify Inhibitors of Platelet Dense Granule Release. [Related pubchem assays: 1663 (Primary HTS), 1678 (Summary of Project)]; format: functional
[7] = target: ATP-dependent molecular chaperone HSP82 (Candida albicans (strain WO-1) (Yeast), UniProt C4YTQ8); experiment: steroid-induced GRE reporter decrease in yeast – S. cerevisiae, luminescence, Hsp90 inhibitor project, dose response (AID 2400); format: functional, cell-based;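 note: beta-galactosidase luminescence from glucocorticoid response element reporter as proxy for Hsp90 function; inhibitor potency where signal loss means Hsp90 inhibition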
Sequence of ATP-dependent molecular chaperone HSP82 (C4YTQ8 whole entry): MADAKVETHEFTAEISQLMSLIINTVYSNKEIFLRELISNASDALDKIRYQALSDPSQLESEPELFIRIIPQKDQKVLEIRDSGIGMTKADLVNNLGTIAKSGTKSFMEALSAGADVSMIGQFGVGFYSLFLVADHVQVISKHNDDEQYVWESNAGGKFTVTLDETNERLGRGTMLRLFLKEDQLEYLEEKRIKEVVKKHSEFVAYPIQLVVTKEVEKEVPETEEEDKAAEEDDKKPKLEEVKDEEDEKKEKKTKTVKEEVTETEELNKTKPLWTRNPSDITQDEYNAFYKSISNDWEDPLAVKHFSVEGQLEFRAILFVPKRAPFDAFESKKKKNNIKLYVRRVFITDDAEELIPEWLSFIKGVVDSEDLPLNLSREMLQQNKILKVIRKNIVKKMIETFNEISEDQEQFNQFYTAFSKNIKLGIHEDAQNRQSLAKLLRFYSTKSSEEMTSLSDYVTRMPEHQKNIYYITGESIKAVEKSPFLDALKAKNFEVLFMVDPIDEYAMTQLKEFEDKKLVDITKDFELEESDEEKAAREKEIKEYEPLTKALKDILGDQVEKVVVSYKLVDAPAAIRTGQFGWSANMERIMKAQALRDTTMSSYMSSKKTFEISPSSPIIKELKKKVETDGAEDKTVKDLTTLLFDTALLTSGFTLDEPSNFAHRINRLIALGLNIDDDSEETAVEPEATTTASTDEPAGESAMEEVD

[8] = target: T3, Serine/threonine-protein phosphatase (Candida dubliniensis (strain CD36 / CBS 7987 / NCPF 3949 / NRRLY-17841) (Yeast), UniProt B9W6M3); experiment: blockers of CaCl2-induced CDRE-lacZ signaling – S. cerevisiae, luminescence, secondary, dose response (AID 2388); format: functional, cell-based;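 note: yeast reporter cells carrying a calcineurin-responsive lacZ construct stimulated with calcium chloride; luminescent beta-galactosidase reporter signal in whole cells rather than isolated phosphatase activity; potency for inhibition where a drop in reporter signal means calcineurin blockade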
T3 sequence (B9W6M3 whole entry): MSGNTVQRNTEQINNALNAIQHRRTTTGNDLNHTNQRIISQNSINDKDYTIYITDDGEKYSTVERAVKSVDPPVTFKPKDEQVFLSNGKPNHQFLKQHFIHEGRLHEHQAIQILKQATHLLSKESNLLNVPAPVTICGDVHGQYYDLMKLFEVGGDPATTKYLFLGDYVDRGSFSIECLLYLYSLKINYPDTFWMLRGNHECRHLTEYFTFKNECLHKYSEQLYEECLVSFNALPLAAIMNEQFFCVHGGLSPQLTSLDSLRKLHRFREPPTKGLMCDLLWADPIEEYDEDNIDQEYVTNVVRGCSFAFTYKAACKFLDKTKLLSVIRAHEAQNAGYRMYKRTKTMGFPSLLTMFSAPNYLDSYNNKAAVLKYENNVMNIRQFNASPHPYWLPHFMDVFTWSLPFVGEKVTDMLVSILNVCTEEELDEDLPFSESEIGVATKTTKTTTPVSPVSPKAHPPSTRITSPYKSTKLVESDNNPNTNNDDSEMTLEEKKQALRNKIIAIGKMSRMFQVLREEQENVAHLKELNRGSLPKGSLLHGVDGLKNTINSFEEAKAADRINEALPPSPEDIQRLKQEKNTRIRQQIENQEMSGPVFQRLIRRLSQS

[9] = fluconazole-exposed Candida albicans growth modulators – fluorescence, retest, confirmation (AID 2467); format: functional, cell-based
[10] = NIH-3T3 fibroblast cytotoxicity, dose response, cytotoxicity control, cell-based, fluorescence, Alamar Blue, secondary assay (AID 2327); format: functional;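 note: NIH-3T3 mouse fibroblasts cultured with fluconazole at 8 µg/mL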
Escherichia coli [11] = experiment: microbe, parasite or virus in culture
HEK293 [12] = experiment: EBV LMP1 TES2 canonical NF-kB signalling blockers – cell-based, HEK293, luciferase, cherry-pick, dose response (AID 588343); format: functional; conditions: Homo sapiens
Escherichia coli [13] = experiment: microbe, parasite or virus in culture; remark: listed apart in the source
HeLa = experiment: ATP-based viability loss in HeLa cells – cell-based, CellTiter-Glo luminescence, cherry-pick samples, cytotoxicity control for MITF activator project, dose response (AID 540259); format: functional; conditions: Homo sapiens
Vero [14] = experiment: viability of Vero cells under compound – cytotoxicity control for flavivirus capping enzyme inhibitors (AID 588742); format: functional; conditions: Chlorocebus sabaeus
Genome polyprotein = Genome polyprotein (dengue virus type 2, UniProt P29990); experiment: flavivirus cap methylation enzyme inhibition – biochemical, confirmation dose response, primary screen (AID 588689); format: functional
Sequence of Genome polyprotein (P29990 2492-3391 limits assumed): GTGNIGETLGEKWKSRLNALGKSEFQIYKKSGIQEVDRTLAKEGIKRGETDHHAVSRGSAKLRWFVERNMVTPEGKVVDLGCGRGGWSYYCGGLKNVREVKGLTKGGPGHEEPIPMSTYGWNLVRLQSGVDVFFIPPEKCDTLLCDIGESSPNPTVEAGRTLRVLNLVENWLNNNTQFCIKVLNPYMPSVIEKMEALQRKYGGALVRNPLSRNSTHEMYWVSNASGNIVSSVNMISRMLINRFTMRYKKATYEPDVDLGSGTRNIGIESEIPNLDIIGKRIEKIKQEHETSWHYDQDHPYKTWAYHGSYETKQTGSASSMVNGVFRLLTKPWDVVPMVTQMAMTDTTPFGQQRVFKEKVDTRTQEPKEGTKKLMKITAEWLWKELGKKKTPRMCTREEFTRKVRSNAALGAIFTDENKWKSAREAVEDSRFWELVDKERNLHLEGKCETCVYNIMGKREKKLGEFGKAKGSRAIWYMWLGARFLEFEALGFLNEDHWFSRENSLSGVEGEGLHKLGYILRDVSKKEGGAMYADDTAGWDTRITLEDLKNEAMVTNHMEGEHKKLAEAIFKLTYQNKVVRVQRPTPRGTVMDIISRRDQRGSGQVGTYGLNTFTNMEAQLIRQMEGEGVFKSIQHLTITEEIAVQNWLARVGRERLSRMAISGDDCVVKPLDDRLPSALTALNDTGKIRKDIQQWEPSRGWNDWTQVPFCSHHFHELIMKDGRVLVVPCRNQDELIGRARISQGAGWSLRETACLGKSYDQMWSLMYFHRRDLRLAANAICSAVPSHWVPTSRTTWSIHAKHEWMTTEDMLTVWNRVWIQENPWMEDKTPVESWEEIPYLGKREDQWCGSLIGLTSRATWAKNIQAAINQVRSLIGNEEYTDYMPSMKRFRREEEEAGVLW

[15] = viability loss in THP-1 monocytes – THP-1 cells, cytotoxicity control for Vif-APOBEC3G degradation inhibitor project, dose response (AID 1117359); format: functional; conditions: THP-1
BJ [16] = experiment: cells; format: functional, cell-based; conditions: Homo sapiens
BJ [17] = experiment: growth inhibition of engineered Ras-driven BJ cells – cell-based, alamar blue fluorescence, cherrypicked samples, dose response (AID 2631); format: functional; conditions: Homo sapiens;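 note: confirmatory dose-response assay in RAS-dependent BJ fibroblasts engineered with TERT, LT and ST, with cytotoxicity read by fluorescence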
BJ [18] = experiment: BJ-TERT-LT-ST fibroblast viability loss – cell-based, RAS-independent, luminescence, dose response (AID 1935); format: functional; conditions: Homo sapiens;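 note: BJ fibroblasts immortalized with TERT plus LT and ST oncogenes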
BJ [19] = experiment: BJ-TERT fibroblast viability loss – cell-based, RAS-independent, luminescence, dose response (AID 1933); format: functional; conditions: Homo sapiens
[20] = DRD fibroblast viability loss – cell-based, non-viral oncogenic, luminescence, dose response (AID 1934); format: functional; conditions: Homo sapiens

For CN(C)/C=C(/C(=O)c1ccc(Cl)c(Cl)c1)c1nnnn1-c1ccccc1, the IC50 (HEK293 [1]) was > 67.5 µM (inactive) and the IC50 [2] was > 67.5 µM (inactive).
For Cc1nn2c(-c3ccncc3)nnc2c2ccccc12, the IC50 [3] was 5.15 µM (active).
For O=C(N/N=C/c1cccn1-c1ccc([N+](=O)[O-])cc1)c1cccnc1, the CC50 (Vero [4]) was > 25 µM (active).
For CCSc1nnc(NC(=O)C2CC2c2ccccc2)s1 (stereo not given), the IC50 (HEK293 [1]) was > 67.5 µM (inactive), the EC50 [5] was > 112 µM (not active) and the IC50 [2] was > 67.5 µM (inactive). For the same compound, the EC50 [6] was > 112 µM (not active).
With CC(C)(C)c1ccc(Cc2nnc(S)nc2O)cc1 the EC50 [7] was 9.48 µM (active), the EC50 [8] was 20.2 µM (active) and the EC50 [9] was 368 nM (active). The EC50 [10] was > 160 µM (inactive).
With CCOC(=O)c1nc(NCc2ccccc2F)c2ccccc2n1 the AC50 (Escherichia coli [11]) was > 150 µM (inactive), the AC50 (HEK293 [12]) was > 350 µM (inactive) and the AC50 (Escherichia coli [13]) was 52.7 µM (active).
In the case of CC1=C(CC[C@@H](C)CO)O[C@H]2C[C@H]3[C@@H]4CC[C@H]5C[C@@H](O)CC[C@]5(C)[C@H]4CC(=O)[C@]3(C)[C@@H]12, the EC50 [7] was > 150 µM (inactive), the EC50 [8] was > 180 µM (inactive) and the EC50 [9] was 383 nM (active). The EC50 [10] was > 150 µM (inactive).
For c1ccc(CCn2nnc3ccccc32)cc1, the AC50 (HeLa) was 207 µM (active).
With COc1cc2nc(N3CCN(C(=O)c4ccco4)CC3)nc(N)c2cc1OC [PRAZOSIN HYDROCHLORIDE] the CC50 (Vero [4]) was 16.9 µM (active).
For Cc1cc(C)c2c(N)c(C(=O)Nc3ccc(C)c(C)c3)sc2n1, the IC50 (HEK293 [1]) was > 67.6 µM (inactive) and the IC50 [2] was > 67.6 µM (inactive).
With COc1ccc2c(c1)CC/C2=N\OC(=O)c1ccccc1C the AC50 (HeLa) was 51.1 µM (active).
With O=C(/C(=N/N=C/c1ccc(O)c(O)c1O)c1ccccc1)c1ccccc1 the CC50 (Vero [14]) was 9.15 µM (active), the IC50 (Genome polyprotein) was 50.1 µM (active) and the EC50 [7] was 5.97 µM (active). For the same compound, the EC50 [8] was > 180 µM (inactive), the EC50 [9] was 4040 nM (active) and the EC50 [10] was > 150 µM (inactive). For the same compound, the CC50 [15] was 16.6 µM (active).
For CN(C)c1ccnc2sc3c(SCc4ccc(Cl)cc4)ncnc3c12, the AC50 (HeLa) was 63.3 µM (active).
With Cc1cc(CNC(=O)c2cc(COc3ccc(F)c(F)c3)on2)nn1C the AC50 (HeLa) was 66.8 µM (active).
With Cc1cccc(OCC(=O)Nc2ccc(C(=O)NCc3cccnc3)cc2)c1 the EC50 (BJ [16]) was 8.97 µM (inconclusive), the EC50 (BJ [17]) was 17.3 µM (active) and the EC50 (BJ [18]) was > 150 µM (inconclusive). For the same compound, the EC50 (BJ [19]) was > 150 µM (not active) and the EC50 [20] was > 150 µM (not active).
With CCOc1cccc(C(=O)NC2=NCCS2)c1 the IC50 (HEK293 [1]) was > 67.5 µM (inactive) and the IC50 [2] was > 67.5 µM (inactive).
